In patent publication US20250188092A1, “RIFAMYCIN ANALOGS” (THE REGENTS OF THE UNIVERSITY OF MICHIGAN, priority 2021, published 2025):
Values after ≈ are worked out from the molar mass of the structure shown. Values joined by “and” are separate entries in the source; they are usually repeats but may differ in a detail not shown here. Equal values may be shown once. Read-outs that look alike come from different tables or passages of the source.

What was measured:
[1] = format: in vivo, BALB/c mice; details: Day 1, Five Day Study, 4 hr
M. tuberculosis Erdman = test: Mouse acute efficacy study (lung CFU); format: in vivo, BALB/c mice; details: for CFU/Mouse: day 21
MTB H37Rv ATCC 27294 = test: MIC, microplate Alamar Blue assay (MABA); format: cell-based, Mycobacterium tuberculosis
[2] = Mouse acute efficacy study: mice weight and adverse effects
M. tuberculosis H37Rv = test: Minimum bactericidal concentration (MBC, CFU Assay); format: cell-based, Mycobacterium tuberculosis
VERO cells (ATCC CRL-81) = test: Vero cell toxicity; format: cell-based; details: 72 hours exposure
Protocol: Cytotoxicity for a mammalian cell line was determined by exposing VERO cells (ATCC CRL-81) to serial dilutions of test compounds for 72 hours, followed by addition of resazurin and measurement of fluorescence after 4 hours incubation (Choules, et al., Antimnicrob. Agents Chemother. 2019, 63, e02204-02218).

[3] = format: in vivo, BALB/c mice
Protocol: For i.v. dosing, the vehicle DMSO/PEG-400/PBS (1×) (5/60/35) was used. Female ˜20 g BALB/c mice (7-9 weeks old) were used in the study. Three mice were used for each set of conditions. […] Plasma concentrations were determined over 24 hrs in the single day study and on days 1 and 5 in the 5 day study. Lung exposure was also determined in the 1 day study at 24 hrs post dosing and on day 5 of the 5 day study at 4 hrs and 24 hrs post dosing. Compound concentrations were determined by reverse phase HPLC-MS against a standard curve.

E. coli WT RNAP = target: T1, E. coli WT RNAP (Escherichia coli, UniProt P0A8V2); test: biochemical
T1 construct: made in house

WT MTB RNAP = target: T2, WT MTB RNAP (Mycobacterium tuberculosis, UniProt P9WGY9); format: biochemical; details: lower limit of detection ~5 nM
T2 construct: made in house; host or cells: E. coli BL21(DE3)

[4] = target: T3, human pregnane X receptor (hPXR) (Homo sapiens, UniProt O75469)
T3 sequence (O75469 1-434): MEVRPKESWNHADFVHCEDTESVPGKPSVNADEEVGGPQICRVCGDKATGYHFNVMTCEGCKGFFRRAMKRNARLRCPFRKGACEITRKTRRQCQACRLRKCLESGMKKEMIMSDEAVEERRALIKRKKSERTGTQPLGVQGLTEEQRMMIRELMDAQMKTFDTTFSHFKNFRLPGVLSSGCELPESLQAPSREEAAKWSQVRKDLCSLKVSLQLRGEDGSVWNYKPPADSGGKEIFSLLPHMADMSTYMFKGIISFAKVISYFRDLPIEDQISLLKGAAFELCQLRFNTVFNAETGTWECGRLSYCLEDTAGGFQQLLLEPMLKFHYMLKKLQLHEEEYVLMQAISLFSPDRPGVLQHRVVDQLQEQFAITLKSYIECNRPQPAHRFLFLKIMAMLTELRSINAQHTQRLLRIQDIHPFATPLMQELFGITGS

CYP 3A4 = details: human, 24 h
MTB H37Rv = details: cited from earlier work
[5] = human trials; cited from earlier work
hPXR = hPXR (Homo sapiens, UniProt O75469); details: cited from earlier work
[6] = mouse, in vivo
[7] = 100 mg/kg QD, PEG-water vehicle
[8] = MTB H37Rv ATCC 27294, microplate Alamar Blue assay, lowest concentration giving ≥90% reduction in fluorescence
[9] = Mycobacterium tuberculosis, MTB H37Rv ATCC 27294, microplate Alamar Blue assay, lowest concentration giving ≥90% reduction in fluorescence

T2 sequence (P9WGI1 whole entry): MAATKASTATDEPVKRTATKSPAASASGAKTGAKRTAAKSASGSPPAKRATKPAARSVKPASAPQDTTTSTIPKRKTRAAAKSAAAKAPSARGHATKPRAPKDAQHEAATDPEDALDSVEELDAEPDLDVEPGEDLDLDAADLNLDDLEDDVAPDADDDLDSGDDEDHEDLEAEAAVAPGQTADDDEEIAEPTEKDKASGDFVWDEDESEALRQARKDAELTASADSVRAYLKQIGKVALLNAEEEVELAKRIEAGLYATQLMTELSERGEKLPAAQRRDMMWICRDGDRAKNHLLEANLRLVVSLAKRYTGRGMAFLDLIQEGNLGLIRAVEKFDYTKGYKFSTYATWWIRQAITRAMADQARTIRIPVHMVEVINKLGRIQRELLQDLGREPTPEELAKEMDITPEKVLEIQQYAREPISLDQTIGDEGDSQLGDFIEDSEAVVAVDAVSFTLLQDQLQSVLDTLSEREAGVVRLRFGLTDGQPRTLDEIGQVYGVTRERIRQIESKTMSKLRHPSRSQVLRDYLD
T2 sequence (P9WGY7 whole entry, further chain): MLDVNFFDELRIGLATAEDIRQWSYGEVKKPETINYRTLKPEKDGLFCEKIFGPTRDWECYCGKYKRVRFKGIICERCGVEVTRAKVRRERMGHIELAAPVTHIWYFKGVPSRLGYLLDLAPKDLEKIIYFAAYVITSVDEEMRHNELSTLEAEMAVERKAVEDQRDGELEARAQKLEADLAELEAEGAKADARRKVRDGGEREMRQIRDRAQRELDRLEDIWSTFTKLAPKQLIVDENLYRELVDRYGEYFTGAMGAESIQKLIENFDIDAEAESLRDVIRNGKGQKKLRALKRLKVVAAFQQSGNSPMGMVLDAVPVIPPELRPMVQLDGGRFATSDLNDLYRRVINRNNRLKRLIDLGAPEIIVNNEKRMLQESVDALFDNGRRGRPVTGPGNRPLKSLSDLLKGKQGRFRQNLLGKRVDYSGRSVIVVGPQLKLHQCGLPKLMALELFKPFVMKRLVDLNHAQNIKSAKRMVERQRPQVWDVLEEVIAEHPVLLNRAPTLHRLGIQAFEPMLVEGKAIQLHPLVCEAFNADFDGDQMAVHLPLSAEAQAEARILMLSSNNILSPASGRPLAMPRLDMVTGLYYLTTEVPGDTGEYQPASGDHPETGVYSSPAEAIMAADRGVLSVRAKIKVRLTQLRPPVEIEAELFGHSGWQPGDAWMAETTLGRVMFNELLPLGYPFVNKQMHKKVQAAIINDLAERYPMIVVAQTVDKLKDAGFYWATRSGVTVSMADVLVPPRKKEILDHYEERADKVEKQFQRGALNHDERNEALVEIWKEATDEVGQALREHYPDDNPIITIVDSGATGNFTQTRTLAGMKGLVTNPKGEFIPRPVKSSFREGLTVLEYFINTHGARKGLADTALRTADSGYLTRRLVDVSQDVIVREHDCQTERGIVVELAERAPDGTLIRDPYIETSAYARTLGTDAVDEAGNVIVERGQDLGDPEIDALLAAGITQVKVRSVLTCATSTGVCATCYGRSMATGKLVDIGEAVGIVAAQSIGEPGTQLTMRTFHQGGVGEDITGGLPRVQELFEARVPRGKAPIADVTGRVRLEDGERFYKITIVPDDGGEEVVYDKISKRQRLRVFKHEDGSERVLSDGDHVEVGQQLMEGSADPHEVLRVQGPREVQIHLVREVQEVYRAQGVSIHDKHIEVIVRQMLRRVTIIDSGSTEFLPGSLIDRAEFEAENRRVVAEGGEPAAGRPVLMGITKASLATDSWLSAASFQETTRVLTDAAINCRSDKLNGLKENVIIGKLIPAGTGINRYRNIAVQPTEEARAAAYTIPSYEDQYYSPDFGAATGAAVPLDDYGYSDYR
T2 sequence (P9WGY5 whole entry, further chain): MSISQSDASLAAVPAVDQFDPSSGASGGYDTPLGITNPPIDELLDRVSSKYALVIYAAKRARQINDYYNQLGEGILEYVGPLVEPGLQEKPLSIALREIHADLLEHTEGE
T2 sequence (P9WGZ1 whole entry, further chain): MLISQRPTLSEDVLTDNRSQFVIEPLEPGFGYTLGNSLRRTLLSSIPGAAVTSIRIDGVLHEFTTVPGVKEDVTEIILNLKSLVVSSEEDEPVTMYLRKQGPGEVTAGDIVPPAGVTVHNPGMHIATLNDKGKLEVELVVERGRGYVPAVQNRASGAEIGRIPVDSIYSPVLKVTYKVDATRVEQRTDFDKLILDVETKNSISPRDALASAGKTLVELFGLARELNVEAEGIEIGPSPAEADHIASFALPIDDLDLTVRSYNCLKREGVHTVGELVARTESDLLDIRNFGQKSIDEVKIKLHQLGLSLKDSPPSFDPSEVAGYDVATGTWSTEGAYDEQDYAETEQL
T2 sequence (P9WGY9 whole entry): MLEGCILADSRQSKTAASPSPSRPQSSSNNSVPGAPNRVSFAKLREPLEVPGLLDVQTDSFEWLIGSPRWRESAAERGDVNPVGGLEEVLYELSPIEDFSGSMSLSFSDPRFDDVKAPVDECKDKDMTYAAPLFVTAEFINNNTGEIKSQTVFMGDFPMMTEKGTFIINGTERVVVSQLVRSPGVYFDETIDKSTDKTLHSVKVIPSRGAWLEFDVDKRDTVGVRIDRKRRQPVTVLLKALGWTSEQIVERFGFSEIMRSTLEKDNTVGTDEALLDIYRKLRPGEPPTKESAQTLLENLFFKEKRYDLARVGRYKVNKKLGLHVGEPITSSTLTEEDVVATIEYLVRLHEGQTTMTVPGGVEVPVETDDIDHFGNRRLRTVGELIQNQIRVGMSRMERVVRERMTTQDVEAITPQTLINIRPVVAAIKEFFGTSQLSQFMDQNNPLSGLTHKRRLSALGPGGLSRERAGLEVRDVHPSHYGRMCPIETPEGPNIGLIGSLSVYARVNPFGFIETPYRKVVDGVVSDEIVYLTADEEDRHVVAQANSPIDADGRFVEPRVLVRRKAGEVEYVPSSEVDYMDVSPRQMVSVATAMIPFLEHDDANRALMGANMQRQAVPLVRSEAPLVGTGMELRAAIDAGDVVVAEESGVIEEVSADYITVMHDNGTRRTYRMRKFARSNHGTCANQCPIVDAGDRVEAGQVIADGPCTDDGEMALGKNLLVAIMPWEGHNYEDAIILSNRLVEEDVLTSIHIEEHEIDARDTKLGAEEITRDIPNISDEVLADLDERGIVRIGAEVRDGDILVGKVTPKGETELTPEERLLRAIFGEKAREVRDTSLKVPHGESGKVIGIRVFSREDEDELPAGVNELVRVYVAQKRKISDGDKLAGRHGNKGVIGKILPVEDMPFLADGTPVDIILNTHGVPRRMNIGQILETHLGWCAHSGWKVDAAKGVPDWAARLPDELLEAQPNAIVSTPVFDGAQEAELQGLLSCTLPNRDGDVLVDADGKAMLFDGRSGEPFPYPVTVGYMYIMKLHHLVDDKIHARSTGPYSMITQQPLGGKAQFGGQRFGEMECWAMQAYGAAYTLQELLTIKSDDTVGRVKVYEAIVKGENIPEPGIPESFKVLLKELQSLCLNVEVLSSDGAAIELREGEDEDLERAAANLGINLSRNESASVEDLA

CO[C@H]1/C=C/O[C@@]2(C)Oc3c(C)c(O)c4c(=O)c(c5oc6cc(N7CCN(CC(C)C)CC7)cc(OCc7ccc(CN8CCOCC8)cc7)c6nc-5c4c3C2=O)NC(=O)/C(C)=C\C=C\[C@H](C)[C@H](O)[C@@H](C)[C@@H](O)[C@@H](C)[C@H](OC(C)=O)[C@@H]1C [Compound 17e, (7S,9E,11S,12R,13S,14R,15R,16R,17S,18S,19E,21Z)-2,15,17-Trihydroxy-11-methoxy-3,7,12,14,16,18,22-heptamethyl-30-[4-(2-methylpropyl)piperazin-1-yl]-32-({4-[(morpholin-4-yl)methyl]phenyl}methoxy)-6,23,37-trioxo-8,27,38-trioxa-24,34-diazahexacyclo[23.11.1.1^4,7.0^5,36.0^26,35.0^28,33]octatriaconta-1(36)2,4,9,19,21,25,28,30,32,34-undecaen-13-yl acetate]
Lung Homogenate concentration, Avg [1]: 248 ng/mL and 219 nM | effectiveness versus rifampin control at 15 mg/kg in the same vehicle (M. tuberculosis Erdman; 100 mg/kg PO): at least equal in effectiveness | CFU/Mouse (M. tuberculosis Erdman; [7]): 4,029 | DPX2 Viability @ 6.25 μM (DPX2 cells; 6.25 μM, 24 h): 113% | DPX2 Viability @ 25 μM (DPX2 cells; human): 95% | MIC90 MABA Rel to RMP (MTB H37Rv ATCC 27294): 0.12 | MIC (MTB H37Rv ATCC 27294; Mycobacterium tuberculosis, MTB H37Rv ATCC 27294, microplate Alamar Blue assay, lowest concentration giving ≥90% reduction in fluorescence, read-out: MIC90 MABA): 0.005 µM | Mice Weight (g) Day 0 [2, 7]: 20.4 g | Mice Weight (g) Day 31 [2, 7]: 21.0 g | adverse effects noted in the mice ([2]; 3-week treatment period): no adverse effects | MBC better than that of rifampin (M. tuberculosis H37Rv): ~5 fold | IC50 (VERO cells (ATCC CRL-81); Chlorocebus sabaeus, Vero): > 10000 nM | Plasma concentration, Avg ([3]; Day 1, Five Day Study, 4 hr): 360 ng/mL and 319 nM | Lung Homogenate concentration, Avg ([3]; Day 1, One Day Study, 24 hr): 164 ng/mL and 145 nM | Plasma concentration, Avg ([3]; Day 1, One Day Study, 24 hr): 327 ng/mL and 289 nM | Lung Homogenate concentration, Avg ([3]; Day 5, Five Day Study, 4 hr): 323 ng/mL and 286 nM | Plasma concentration, Avg ([3]; Day 5, Five Day Study, 4 hr): 688 ng/mL and 608 nM | Lung Homogenate concentration, Avg ([3]; Day 5, Five Day Study, 24 hr): 41 ng/mL and 36 nM | Plasma concentration, Avg ([3]; Day 5, Five Day Study, 24 hr): 121 ng/mL and 107 nM | IC50 (E. coli WT RNAP): 14 nM

CO[C@H]1/C=C/O[C@@]2(C)Oc3c(C)c(O)c4c(=O)c(c5oc6cc(N7CCC(CC(=O)O)CC7)cc(OCc7ccc(CN8CCOCC8)cc7)c6nc-5c4c3C2=O)NC(=O)/C(C)=C\C=C\[C@H](C)[C@H](O)[C@@H](C)[C@@H](O)[C@@H](C)[C@H](OC(C)=O)[C@@H]1C [Compound 17l, 2-{1-[(7S,9E,11S,12R,13S,14R,15R,16R,17S,18S,19E,21Z)-13-(acetyloxy)-2,15,17-trihydroxy-11-methoxy-3,7,12,14,16,18,22-heptamethyl-32-{[4-(morpholin-4-ylmethyl)phenyl]methoxy}-6,23,37-trioxo-8,27,38-trioxa-24,34-diazahexacyclo-[23.11.1.1^4,7.0^5,36.0^26,35.0^28,33]octatriaconta-1,3,5(36)9,19,21,25,28,30,32,34-undecaen-30-yl]piperidin-4-yl)acetic acid]
IC50 (WT MTB RNAP): 13 nM | DPX2 Viability @ 6.25 μM (DPX2 cells): 107% | DPX2 Viability @ 25 μM (DPX2 cells): 102% | MIC90 MABA Rel to RMP (MTB H37Rv ATCC 27294): 7.0 | MIC90 (MTB H37Rv ATCC 27294; [8]): 0.187 µM (≈ 0.212 µg/mL) | hPXR Fold Act. (lucif) @ 6.25 μM [4]: 1.1 fold | hPXR Fold Act. (lucif) @ 25 μM [4]: 1.9 fold | IC50 (VERO cells (ATCC CRL-81)): > 10000 nM

CO[C@H]1/C=C/O[C@@]2(C)Oc3c(C)c(O)c4c(=O)c(c5oc6cc(N7CCN(C(=O)c8cccc(-c9ccccn9)c8)CC7)cc(OCc7ccc(CN8CCOCC8)cc7)c6nc-5c4c3C2=O)NC(=O)/C(C)=C\C=C\[C@H](C)[C@H](O)[C@@H](C)[C@@H](O)[C@@H](C)[C@H](OC(C)=O)[C@@H]1C [Compound 17r, (7S,9E,11S,12R,13S,14R,15R,16R,17S,18S,19E,21Z)-2,15,17-trihydroxy-11-methoxy-3,7,12,14,16,18,22-heptamethyl-32-{[4-(morpholin-4-ylmethyl)phenyl]methoxy}-6,23,37-trioxo-30-(4-{[3-(pyridin-2-yl)phenyl]carbonyl}piperazin-1-yl)-8,27,38-trioxa-24,34-diazahexacyclo[23.11.1.1^4,7.0^5,36.0^26,35.0^28,33]octatriaconta-1,3,5(36)9,19,21,25,28,30,32,34-undecaen-13-yl acetate]
IC50 (WT MTB RNAP): 9.8 nM | DPX2 Viability @ 6.25 μM (DPX2 cells): 105% | DPX2 Viability @ 25 μM (DPX2 cells): 94% | MIC90 MABA Rel to RMP (MTB H37Rv ATCC 27294): 0.46 | MIC90 (MTB H37Rv ATCC 27294; [8]): 0.023 µM | hPXR Fold Act. (lucif) @ 6.25 μM [4]: 1 fold | hPXR Fold Act. (lucif) @ 25 μM [4]: 1 fold | IC50 (VERO cells (ATCC CRL-81)): > 10000 nM

CO[C@H]1/C=C/O[C@@]2(C)Oc3c(C)c(O)c4c(O)c(c(/C=N/N5CCN(C6CCCC6)CC5)c(O)c4c3C2=O)NC(=O)/C(C)=C\C=C\[C@H](C)[C@H](O)[C@@H](C)[C@@H](O)[C@@H](C)[C@H](OC(C)=O)[C@@H]1C [RFP, rifapentine, reference compound]
DPX2 Viability @ 6.25 μM (DPX2 cells; human, 24 h, 6.25 μM): 104% | DPX2 Viability @ 25 μM (DPX2 cells; human, 24 h, 25 μM): 105% | hPXR Fold Act. (CYP 3A4) @ 6.25 μM (CYP 3A4; 6.25 μM): 20.3 fold | hPXR Fold Act. (CYP 3A4) @ 25 μM (CYP 3A4; 25 μM): 20.5 fold

CO[C@H]1/C=C/O[C@@]2(C)Oc3c(C)c(O)c4c(=O)c(c5oc6cc(N7CCN(CC(C)C)CC7)cc(O)c6nc-5c4c3C2=O)NC(=O)/C(C)=C\C=C\[C@H](C)[C@H](O)[C@@H](C)[C@@H](O)[C@@H](C)[C@H](OC(C)=O)[C@@H]1C [RLZ, rifalazil, reference compound]
more potent than RMP against MTB H37Rv in vitro (MTB H37Rv): 29 fold | DPX2 Viability @ 6.25 μM (DPX2 cells; 6.25 μM, 24 h): 108% | loss of cell viability (DPX2 cells; at 100 pt): ~2 fold | DPX2 Viability @ 25 μM (DPX2 cells; human): 96% | half-life [5]: 60 to 100 h | MIC90 MABA Rel to RMP (MTB H37Rv ATCC 27294): 0.04 | MIC90 (MTB H37Rv ATCC 27294; [9]): 0.0011 µM (≈ 0.00104 µg/mL) | hPXR activation (hPXR): does not activate | activation of hPXR [4]: no activation

CO[C@H]1/C=C/O[C@@]2(C)Oc3c(C)c(O)c4c(O)c(c(/C=N/N5CCN(C)CC5)c(O)c4c3C2=O)NC(=O)/C(C)=C\C=C\[C@H](C)[C@H](O)[C@@H](C)[C@@H](O)[C@@H](C)[C@H](OC(C)=O)[C@@H]1C [RMP, rifampin, reference compound]
CFU/Mouse (M. tuberculosis Erdman; 15 mg/kg QD, CMC-Tween vehicle): 857 | CFU/Mouse (M. tuberculosis Erdman; 15 mg/kg QD, PEG-water vehicle): 8,443 | MIC90 MABA Rel to RMP (MTB H37Rv ATCC 27294; MABA MIC90 relative to rifampin (RMP = 1)): 1 | MIC90 (MTB H37Rv ATCC 27294; [9]): 0.027 µM (≈ 0.0222 µg/mL) | adverse effects noted in the mice [6]: no adverse effects | MBC99 Day 7 (CFU Assay) MBC99 Rel to RMP (M. tuberculosis H37Rv; CFU Assay MBC99 relative to rifampin (RMP = 1)): 1 | MBC (M. tuberculosis H37Rv; Mycobacterium tuberculosis, 168 h, Day 7, M. tuberculosis H37Rv, ≥99% reduction in colony forming units, read-out: MBC99 Day 7 (CFU Assay) MBC99): 0.13 µM (≈ 0.107 µg/mL) | IC50 (VERO cells (ATCC CRL-81); Chlorocebus sabaeus, Vero): > 100000 nM
